Experimental data from ChEMBL document CHEMBL1641460, “Potent and selective thiophene urea-templated inhibitors of S6K” (Bioorg Med Chem Lett, 2011).
Converted amounts (≈) assume the structure as drawn.

Key:
[1] = target: Ribosomal protein S6 kinase beta-1 (Homo sapiens, UniProt P23443); experiment: Inhibition of S6K1
[2] = Kinetic solubility of the compound in 50 mM phosphate buffer at pH 6.5; assay type: physicochemical
CYP1A2 = target: T1, CYP1A2 (Homo sapiens, UniProt P05177); experiment: Inhibition of CYP1A2 at 3 uM by LC/MS/MS analysis; assay type: ADME
T1 sequence (P05177 whole entry): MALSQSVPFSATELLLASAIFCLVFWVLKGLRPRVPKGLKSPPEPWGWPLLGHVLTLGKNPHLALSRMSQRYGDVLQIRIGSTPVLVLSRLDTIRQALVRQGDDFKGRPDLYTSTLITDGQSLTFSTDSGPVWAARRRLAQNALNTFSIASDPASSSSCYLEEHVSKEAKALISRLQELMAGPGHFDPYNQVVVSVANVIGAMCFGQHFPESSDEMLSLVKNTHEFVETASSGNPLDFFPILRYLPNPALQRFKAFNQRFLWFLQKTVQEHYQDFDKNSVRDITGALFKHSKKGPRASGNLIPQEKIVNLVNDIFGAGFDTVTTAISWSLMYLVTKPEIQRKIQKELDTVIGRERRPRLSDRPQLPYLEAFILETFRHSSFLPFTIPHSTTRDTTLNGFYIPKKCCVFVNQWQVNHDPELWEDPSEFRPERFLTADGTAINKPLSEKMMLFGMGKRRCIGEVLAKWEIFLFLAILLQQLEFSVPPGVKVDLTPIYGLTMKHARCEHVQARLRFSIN

[3] = target: Cyclin-dependent kinase 2 (Homo sapiens) (UniProt P24941); experiment: Inhibition of CDK2 at 1 uM
[4] = target: Tyrosine-protein kinase BTK (Homo sapiens) (UniProt Q06187); experiment: Inhibition of BTK at 1 uM
[5] = target: Rho-associated protein kinase 1 (Homo sapiens) (UniProt Q13464); experiment: Inhibition of ROCK1 at 1 uM
[6] = target: Proto-oncogene tyrosine-protein kinase Src (Homo sapiens) (UniProt P12931); experiment: Inhibition of SRC at 1 uM
[7] = target: Ephrin type-A receptor 2 (Homo sapiens) (UniProt P29317); experiment: Inhibition of EPHA2 at 1 uM
[8] = target: Casein kinase I isoform delta (Homo sapiens) (UniProt P48730); experiment: Inhibition of CSNK1D at 1 uM
[9] = target: Serine/threonine-protein kinase Sgk1 (Homo sapiens) (UniProt O00141); experiment: Inhibition of SGK1 at 1 uM
[10] = target: Serine/threonine-protein kinase Chk1 (Homo sapiens) (UniProt O14757); experiment: Inhibition of CHEK1 at 1 uM
[11] = target: Aurora kinase A (Homo sapiens) (UniProt O14965); experiment: Inhibition of aurora A at 1 uM
[12] = target: Fibroblast growth factor receptor 1 (Homo sapiens) (UniProt P11362); experiment: Inhibition of FGFR1 at 1 uM
[13] = target: Inhibitor of nuclear factor kappa-B kinase subunit epsilon (Homo sapiens) (UniProt Q14164); experiment: Inhibition of IKBKE at 1 uM
[14] = target: Inhibitor of nuclear factor kappa-B kinase subunit beta (Homo sapiens) (UniProt O14920); experiment: Inhibition of IKBKB at 1 uM
[15] = target: Casein kinase II subunit alpha (Homo sapiens) (UniProt P68400); experiment: Inhibition of CSNK2A1 at 1 uM
[16] = target: High affinity nerve growth factor receptor (Homo sapiens) (UniProt P04629); experiment: Inhibition of NTRK1 at 1 uM
[17] = target: Tyrosine-protein kinase Lck (Homo sapiens) (UniProt P06239); experiment: Inhibition of LCK at 1 uM
[18] = target: Myosin light chain kinase 2, skeletal/cardiac muscle (Homo sapiens) (UniProt Q9H1R3); experiment: Inhibition of MYLK2 at 1 uM
[19] = target: Protein kinase C beta type (Homo sapiens) (UniProt P05771); experiment: Inhibition of PRKCB at 1 uM
[20] = target: Tyrosine-protein kinase BTK (Homo sapiens) (UniProt Q06187); experiment: Inhibition of BTK at 10 uM
[21] = target: MAP kinase-activated protein kinase 2 (Homo sapiens) (UniProt P49137); experiment: Inhibition of MAPKAPK2 at 10 uM
[22] = target: Proto-oncogene tyrosine-protein kinase Src (Homo sapiens) (UniProt P12931); experiment: Inhibition of SRC at 10 uM
[23] = target: Serine/threonine-protein kinase MARK1 (Homo sapiens) (UniProt Q9P0L2); experiment: Inhibition of MARK1 at 10 uM
[24] = target: Ephrin type-A receptor 2 (Homo sapiens) (UniProt P29317); experiment: Inhibition of EPHA2 at 10 uM
[25] = target: Serine/threonine-protein kinase Chk1 (Homo sapiens) (UniProt O14757); experiment: Inhibition of CHEK1 at 10 uM
[26] = target: Aurora kinase A (Homo sapiens) (UniProt O14965); experiment: Inhibition of aurora A at 10 uM
[27] = target: Serine/threonine-protein kinase 3 (Homo sapiens) (UniProt Q13188); experiment: Inhibition of STK3 at 10 uM
[28] = target: Serine/threonine-protein kinase PAK 4 (Homo sapiens) (UniProt O96013); experiment: Inhibition of PAK4 at 10 uM
[29] = target: Inhibitor of nuclear factor kappa-B kinase subunit beta (Homo sapiens) (UniProt O14920); experiment: Inhibition of IKBKB at 10 uM
[30] = target: Dual specificity protein kinase CLK1 (Homo sapiens) (UniProt P49759); experiment: Inhibition of CLK1 at 10 uM
[31] = target: Mitogen-activated protein kinase kinase kinase 9 (Homo sapiens) (UniProt P80192); experiment: Inhibition of MAP3K9 at 10 uM
[32] = target: High affinity nerve growth factor receptor (Homo sapiens) (UniProt P04629); experiment: Inhibition of NTRK1 at 10 uM
[33] = target: Protein kinase C zeta type (Homo sapiens) (UniProt Q05513); experiment: Inhibition of PRKCZ at 10 uM
[34] = target: Insulin receptor (Homo sapiens) (UniProt P06213); experiment: Inhibition of INSR at 1 uM
[35] = target: Cyclin-dependent kinase 6 (Homo sapiens) (UniProt Q00534); experiment: Inhibition of CDK6 at 10 uM
[36] = target: Hepatocyte growth factor receptor (Homo sapiens) (UniProt P08581); experiment: Inhibition of MET at 10 uM
[37] = target: RAC-alpha serine/threonine-protein kinase (Homo sapiens) (UniProt P31749); experiment: Inhibition of AKT1 at 10 uM
[38] = target: Serine/threonine-protein kinase Chk2 (Homo sapiens) (UniProt O96017); experiment: Inhibition of CHEK2 at 10 uM
[39] = target: Mitogen-activated protein kinase 1 (Homo sapiens) (UniProt P28482); experiment: Inhibition of MAPK1 at 10 uM

Inhibitor of nuclear factor kappa-B kinase subunit beta (Homo sapiens), sequence (O14920 whole entry): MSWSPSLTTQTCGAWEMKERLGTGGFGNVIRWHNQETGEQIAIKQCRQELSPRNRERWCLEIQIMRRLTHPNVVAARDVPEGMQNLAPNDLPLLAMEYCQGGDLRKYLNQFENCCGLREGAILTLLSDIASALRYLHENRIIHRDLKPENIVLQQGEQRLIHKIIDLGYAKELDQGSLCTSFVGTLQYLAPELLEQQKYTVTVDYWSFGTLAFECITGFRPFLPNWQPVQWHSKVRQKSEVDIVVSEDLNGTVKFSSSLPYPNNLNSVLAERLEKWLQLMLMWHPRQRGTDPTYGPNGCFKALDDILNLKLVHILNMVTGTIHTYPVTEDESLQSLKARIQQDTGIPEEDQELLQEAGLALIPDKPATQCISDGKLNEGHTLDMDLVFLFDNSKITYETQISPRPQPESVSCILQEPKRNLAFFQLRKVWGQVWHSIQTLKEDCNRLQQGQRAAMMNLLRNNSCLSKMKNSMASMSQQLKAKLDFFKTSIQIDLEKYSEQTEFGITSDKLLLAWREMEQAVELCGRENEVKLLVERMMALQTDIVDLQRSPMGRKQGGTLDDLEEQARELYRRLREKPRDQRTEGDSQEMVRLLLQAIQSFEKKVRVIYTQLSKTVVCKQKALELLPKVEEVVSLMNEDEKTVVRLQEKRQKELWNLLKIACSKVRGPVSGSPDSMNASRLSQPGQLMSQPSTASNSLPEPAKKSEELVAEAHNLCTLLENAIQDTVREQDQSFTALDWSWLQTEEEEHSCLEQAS
Tyrosine-protein kinase BTK (Homo sapiens), sequence (Q06187 whole entry): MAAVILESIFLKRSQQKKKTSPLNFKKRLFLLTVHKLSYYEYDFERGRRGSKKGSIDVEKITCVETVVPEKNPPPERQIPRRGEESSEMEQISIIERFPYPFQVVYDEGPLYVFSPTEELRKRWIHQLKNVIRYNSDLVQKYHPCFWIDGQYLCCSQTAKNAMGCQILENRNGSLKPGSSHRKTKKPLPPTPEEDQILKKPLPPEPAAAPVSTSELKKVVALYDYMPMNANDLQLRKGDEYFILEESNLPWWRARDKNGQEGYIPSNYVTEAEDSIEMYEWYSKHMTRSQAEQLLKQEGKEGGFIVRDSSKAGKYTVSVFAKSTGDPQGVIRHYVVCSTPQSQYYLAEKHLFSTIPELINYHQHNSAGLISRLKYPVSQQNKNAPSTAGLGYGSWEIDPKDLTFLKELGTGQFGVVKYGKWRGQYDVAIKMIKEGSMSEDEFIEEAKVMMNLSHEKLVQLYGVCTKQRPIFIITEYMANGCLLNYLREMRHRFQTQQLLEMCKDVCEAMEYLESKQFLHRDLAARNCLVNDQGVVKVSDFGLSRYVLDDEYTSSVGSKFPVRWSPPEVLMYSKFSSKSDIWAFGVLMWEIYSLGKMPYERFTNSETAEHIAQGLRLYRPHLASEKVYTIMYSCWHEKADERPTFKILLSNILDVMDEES
Proto-oncogene tyrosine-protein kinase Src (Homo sapiens), sequence (P12931 2-536 limits assumed): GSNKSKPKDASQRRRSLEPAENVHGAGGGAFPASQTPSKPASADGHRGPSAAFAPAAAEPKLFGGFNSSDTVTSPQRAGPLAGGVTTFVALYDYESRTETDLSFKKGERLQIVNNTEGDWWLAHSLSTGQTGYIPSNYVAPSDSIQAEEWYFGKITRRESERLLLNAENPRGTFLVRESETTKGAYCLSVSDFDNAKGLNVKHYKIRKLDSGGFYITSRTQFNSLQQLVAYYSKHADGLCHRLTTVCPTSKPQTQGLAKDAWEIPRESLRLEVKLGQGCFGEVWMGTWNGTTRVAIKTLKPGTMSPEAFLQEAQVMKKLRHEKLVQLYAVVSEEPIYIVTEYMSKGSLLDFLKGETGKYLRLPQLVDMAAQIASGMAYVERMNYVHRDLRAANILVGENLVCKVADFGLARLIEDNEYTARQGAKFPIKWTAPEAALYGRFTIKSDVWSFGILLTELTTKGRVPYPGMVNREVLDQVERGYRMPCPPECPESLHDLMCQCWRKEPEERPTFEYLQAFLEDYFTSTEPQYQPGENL
High affinity nerve growth factor receptor (Homo sapiens), sequence (P04629 33-796 limits assumed): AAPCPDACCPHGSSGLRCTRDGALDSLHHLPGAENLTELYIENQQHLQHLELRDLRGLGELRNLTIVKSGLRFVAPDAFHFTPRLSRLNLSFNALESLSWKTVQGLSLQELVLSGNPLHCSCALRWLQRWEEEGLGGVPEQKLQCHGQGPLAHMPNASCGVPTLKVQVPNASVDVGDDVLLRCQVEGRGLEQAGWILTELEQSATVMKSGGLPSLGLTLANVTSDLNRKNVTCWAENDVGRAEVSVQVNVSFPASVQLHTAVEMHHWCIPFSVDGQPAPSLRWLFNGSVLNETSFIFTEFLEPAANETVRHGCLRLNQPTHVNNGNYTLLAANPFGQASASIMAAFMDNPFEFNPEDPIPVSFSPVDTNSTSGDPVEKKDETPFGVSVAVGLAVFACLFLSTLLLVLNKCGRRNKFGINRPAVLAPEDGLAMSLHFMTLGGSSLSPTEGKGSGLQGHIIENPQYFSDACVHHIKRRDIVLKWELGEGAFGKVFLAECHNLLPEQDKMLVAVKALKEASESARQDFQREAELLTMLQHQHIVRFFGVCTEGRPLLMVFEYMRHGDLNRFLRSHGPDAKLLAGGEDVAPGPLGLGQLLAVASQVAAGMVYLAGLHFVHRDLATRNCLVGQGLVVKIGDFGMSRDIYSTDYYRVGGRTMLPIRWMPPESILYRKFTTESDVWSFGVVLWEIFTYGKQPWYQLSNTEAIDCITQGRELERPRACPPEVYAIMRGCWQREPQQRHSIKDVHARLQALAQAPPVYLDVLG
Aurora kinase A (Homo sapiens), sequence (O14965 whole entry): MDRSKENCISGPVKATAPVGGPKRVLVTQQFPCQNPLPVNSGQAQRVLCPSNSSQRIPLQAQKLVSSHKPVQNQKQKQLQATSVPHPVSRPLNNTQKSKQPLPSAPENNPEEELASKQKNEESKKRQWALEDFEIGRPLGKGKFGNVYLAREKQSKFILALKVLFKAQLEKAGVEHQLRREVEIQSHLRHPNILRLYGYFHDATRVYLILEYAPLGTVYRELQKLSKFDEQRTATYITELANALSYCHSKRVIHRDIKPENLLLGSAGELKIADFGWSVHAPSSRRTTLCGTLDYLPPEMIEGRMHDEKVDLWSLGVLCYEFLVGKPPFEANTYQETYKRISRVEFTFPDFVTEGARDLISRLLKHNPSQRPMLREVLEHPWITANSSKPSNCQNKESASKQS
Ephrin type-A receptor 2 (Homo sapiens), sequence (P29317 whole entry, canonical isoform): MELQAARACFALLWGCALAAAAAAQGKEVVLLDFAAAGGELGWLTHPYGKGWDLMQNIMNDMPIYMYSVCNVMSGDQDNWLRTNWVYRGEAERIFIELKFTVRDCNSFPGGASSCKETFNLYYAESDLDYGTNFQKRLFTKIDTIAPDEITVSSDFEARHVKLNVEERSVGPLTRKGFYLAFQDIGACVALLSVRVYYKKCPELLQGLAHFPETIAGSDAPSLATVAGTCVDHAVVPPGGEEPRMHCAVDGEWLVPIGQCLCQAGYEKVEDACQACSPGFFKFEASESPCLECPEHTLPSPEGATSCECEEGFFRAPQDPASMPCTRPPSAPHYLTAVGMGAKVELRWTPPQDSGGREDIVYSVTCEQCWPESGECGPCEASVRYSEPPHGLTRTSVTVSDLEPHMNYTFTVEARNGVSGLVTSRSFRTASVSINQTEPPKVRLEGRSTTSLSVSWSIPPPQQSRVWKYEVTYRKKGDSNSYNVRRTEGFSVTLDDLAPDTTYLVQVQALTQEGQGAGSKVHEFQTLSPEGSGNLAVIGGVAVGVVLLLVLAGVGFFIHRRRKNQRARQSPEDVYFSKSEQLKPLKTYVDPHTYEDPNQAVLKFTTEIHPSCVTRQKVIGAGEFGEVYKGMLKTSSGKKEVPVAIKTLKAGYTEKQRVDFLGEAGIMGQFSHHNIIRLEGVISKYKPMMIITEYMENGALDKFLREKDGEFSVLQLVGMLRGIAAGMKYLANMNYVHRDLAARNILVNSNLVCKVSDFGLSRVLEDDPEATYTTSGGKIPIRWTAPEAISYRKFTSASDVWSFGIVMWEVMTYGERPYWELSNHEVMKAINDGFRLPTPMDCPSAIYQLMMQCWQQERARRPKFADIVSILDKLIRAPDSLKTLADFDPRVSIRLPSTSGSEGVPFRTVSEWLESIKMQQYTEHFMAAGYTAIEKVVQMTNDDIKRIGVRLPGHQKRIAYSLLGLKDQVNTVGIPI
Serine/threonine-protein kinase Chk1 (Homo sapiens), sequence (O14757 whole entry): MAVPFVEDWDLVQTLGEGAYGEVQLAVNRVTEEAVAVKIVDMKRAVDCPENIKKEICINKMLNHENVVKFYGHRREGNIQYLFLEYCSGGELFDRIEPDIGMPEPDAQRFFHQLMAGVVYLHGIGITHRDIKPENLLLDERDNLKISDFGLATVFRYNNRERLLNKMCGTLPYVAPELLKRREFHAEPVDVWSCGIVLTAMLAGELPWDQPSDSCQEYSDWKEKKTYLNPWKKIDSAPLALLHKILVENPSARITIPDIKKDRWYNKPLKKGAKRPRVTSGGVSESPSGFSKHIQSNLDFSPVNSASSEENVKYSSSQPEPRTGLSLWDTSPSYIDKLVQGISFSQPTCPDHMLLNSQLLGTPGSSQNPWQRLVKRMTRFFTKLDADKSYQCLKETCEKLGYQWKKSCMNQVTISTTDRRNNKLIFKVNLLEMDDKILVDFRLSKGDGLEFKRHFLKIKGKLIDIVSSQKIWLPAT
Casein kinase II subunit alpha (Homo sapiens), sequence (P68400 whole entry, looked up): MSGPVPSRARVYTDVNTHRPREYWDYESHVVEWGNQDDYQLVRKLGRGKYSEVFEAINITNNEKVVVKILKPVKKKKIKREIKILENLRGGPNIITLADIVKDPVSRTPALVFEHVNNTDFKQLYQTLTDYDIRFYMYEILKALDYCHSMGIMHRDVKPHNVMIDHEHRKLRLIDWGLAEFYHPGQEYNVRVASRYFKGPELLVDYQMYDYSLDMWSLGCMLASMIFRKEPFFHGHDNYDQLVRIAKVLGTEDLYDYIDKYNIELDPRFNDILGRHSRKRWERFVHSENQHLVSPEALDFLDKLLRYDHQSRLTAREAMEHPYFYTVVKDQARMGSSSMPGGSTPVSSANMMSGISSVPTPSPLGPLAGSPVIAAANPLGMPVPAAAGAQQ

IC50 [1]: 52 nM
solubility kinetic [2]: 143 µg/mL (≈ 399 µM)
inhibition at 3 µM (CYP1A2): 6%
inhibition [3]: 10%
inhibition [4]: 0%
inhibition [5]: 10%
inhibition [6]: 0%
inhibition [7]: 10%
inhibition [8]: 20%
inhibition [9]: 0%
inhibition [10]: 10%
inhibition [11]: 0%
inhibition [12]: 0%
inhibition [13]: 10%
inhibition [14]: 10%
inhibition [15]: 30%
inhibition [16]: 10%
inhibition [17]: 0%
inhibition [18]: 10%
inhibition [19]: 10%
inhibition [20]: 0%
inhibition [21]: 10%
inhibition [22]: 0%
inhibition [23]: 20%
inhibition [24]: 10%
inhibition [25]: 10%
inhibition [26]: 0%
inhibition [27]: 0%
inhibition [28]: 0%
inhibition [29]: 10%
inhibition [30]: 10%
inhibition [31]: 20%
inhibition [32]: 10%
inhibition [33]: 20%
inhibition [34]: 0%
inhibition [35]: 0%
inhibition [36]: 0%
inhibition [37]: 0%
inhibition [38]: 20%
inhibition [39]: 10%
SMILES: CC(C)(C)c1cc(C(=O)O)c(NC(=O)Nc2ccc3[nH]ncc3c2)s1
